This passage reports IC50 results from patent US8471005B2 (Cephalon, Inc., priority 2008, dated 2013).

One assay deals with T1, ALK (Homo sapiens, UniProt Q9UM73).
T1 construct: host or cells: baculovirus expression system
The experiment in a line: ALK Kinase Assay (ELISA/TRF, PLC-γ substrate). Type of assay: biochemical. The note with it: read-out: ALK Potency. The procedure, abridged: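 First, plates are coated with substrate (phospholipase C-γ, 10 μg/mL, TBS). Next, 30 ng/ml ALK initiates phosphorylation for 15 min at 37° C. Then Eu-N1 PT66 antibody is added for detection, and a nonlinear dose-response fit of percent inhibition yields IC50.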

The next assay addresses T2, JAK2 (Homo sapiens, UniProt O60674).
T2 construct: host or cells: baculovirus expression system
Put plainly: Recombinant Human JAK2 Kinase Assay (TRF). Type of assay: biochemical. The note with it: read-out: JAK2 Potency. The procedure, abridged: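 Baculovirus-expressed JAK2 (15 ng/ml) phosphorylated a biotinylated 15-mer peptide captured on Neutravidin, in 20 mM HEPES pH 7.2, 0.2 μM ATP, 1 mM MnCl2, 0.1% BSA, 2.5% DMSO final, 20 min at room temperature. Phosphoproduct detected by time-resolved fluorescence with Eu-N1-labelled PY100 antibody.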

Setting [1] is: ALK kinase inhibition, 1 μM ATP.
The mark [2] stands for this setting: JAK2 kinase inhibition, 0.2 μM ATP.

Read-outs that look alike come from different tables or passages of the source.

T1 sequence (Q9UM73 19-1620): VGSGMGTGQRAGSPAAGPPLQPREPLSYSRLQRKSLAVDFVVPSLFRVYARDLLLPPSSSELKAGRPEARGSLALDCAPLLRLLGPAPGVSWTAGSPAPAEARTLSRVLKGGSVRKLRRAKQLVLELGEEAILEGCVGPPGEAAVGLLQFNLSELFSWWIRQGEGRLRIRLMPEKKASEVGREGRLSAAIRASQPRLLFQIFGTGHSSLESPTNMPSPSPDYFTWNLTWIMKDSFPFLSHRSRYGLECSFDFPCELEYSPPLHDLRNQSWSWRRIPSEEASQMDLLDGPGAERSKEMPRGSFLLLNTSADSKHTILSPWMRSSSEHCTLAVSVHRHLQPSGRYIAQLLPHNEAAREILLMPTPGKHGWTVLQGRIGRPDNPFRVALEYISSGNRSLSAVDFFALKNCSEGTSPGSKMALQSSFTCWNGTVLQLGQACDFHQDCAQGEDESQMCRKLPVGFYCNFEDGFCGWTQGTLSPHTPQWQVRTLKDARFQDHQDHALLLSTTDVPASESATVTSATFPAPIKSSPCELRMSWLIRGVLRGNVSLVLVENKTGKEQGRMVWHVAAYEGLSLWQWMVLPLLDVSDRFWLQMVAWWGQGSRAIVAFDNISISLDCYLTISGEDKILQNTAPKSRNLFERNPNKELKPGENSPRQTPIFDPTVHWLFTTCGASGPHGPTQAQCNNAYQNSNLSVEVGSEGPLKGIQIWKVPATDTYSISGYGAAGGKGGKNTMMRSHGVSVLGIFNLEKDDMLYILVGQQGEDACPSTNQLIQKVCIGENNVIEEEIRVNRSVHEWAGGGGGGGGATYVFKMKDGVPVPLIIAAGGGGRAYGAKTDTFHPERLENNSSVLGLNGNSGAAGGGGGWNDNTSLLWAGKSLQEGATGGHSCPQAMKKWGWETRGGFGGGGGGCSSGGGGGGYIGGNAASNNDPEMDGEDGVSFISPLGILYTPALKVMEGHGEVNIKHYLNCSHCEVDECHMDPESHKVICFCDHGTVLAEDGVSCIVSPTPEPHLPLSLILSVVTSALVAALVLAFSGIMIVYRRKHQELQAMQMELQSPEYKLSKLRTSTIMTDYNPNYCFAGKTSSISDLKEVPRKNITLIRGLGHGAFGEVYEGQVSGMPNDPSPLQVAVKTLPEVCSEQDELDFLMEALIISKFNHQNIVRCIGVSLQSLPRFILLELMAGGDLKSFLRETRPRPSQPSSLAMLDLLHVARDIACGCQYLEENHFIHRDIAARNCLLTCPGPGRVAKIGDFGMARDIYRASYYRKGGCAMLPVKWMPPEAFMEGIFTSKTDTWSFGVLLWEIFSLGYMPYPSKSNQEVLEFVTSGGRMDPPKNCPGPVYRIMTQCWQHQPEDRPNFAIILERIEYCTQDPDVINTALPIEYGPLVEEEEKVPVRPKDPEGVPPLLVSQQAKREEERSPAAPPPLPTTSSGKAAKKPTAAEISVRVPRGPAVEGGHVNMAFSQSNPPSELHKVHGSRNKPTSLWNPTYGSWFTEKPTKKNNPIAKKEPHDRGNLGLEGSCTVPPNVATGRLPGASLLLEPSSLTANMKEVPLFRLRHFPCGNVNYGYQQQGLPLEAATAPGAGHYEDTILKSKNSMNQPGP
T2 sequence (O60674 whole entry): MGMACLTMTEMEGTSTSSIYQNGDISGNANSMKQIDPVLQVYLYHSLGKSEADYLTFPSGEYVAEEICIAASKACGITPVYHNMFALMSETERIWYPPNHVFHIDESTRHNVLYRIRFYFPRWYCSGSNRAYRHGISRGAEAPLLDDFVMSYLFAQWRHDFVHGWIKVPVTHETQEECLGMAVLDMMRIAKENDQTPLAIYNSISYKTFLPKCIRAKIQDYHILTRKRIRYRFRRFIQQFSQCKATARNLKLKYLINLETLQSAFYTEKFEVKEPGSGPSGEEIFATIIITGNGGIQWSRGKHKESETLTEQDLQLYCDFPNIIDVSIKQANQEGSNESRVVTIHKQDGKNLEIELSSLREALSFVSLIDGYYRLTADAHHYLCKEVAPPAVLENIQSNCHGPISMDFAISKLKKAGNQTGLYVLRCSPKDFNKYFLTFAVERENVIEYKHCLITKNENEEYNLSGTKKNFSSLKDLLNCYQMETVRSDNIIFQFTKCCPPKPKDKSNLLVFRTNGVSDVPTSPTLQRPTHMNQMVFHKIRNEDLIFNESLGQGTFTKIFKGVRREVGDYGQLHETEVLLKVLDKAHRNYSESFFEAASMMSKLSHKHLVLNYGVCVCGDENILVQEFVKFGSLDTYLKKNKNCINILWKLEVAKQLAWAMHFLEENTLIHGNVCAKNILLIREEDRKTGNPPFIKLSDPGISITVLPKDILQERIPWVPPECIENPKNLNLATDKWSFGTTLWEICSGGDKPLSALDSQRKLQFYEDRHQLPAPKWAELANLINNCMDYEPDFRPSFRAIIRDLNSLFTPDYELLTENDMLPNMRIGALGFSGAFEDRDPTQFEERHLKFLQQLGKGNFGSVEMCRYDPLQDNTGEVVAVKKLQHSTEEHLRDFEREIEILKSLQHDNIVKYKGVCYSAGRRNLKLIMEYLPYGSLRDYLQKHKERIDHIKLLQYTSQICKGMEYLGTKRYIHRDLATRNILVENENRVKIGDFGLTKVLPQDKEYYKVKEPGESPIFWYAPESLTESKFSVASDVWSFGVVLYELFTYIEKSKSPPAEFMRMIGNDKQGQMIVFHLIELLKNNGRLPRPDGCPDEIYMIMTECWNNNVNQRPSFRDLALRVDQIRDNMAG

With `COc1cc(C2CCN(C(=O)OC(C)(C)C)CC2)ccc1Nc1ncc2ccc(-c3ccccc3OC)n2n1` [Example 817, 4-{3-Methoxy-4-[7-(2-methoxy-phenyl)-pyrrolo[2,1-f][1,2,4]triazin-2-ylamino]-phenyl}-piperidine-1-carboxylic acid tert-butyl ester], the IC50 at ALK (setting [1]) and on JAK2 (setting [2]) was > 10000 nM in each case.
As for `CS(=O)(=O)c1ccc(-c2ccc3cnc(Nc4ccc(N5CCCC(N6CCOCC6)C5)cc4)nn23)cc1` (stereo not shown) [Example 346, [7-(4-Methanesulfonyl-phenyl)-pyrrolo[2,1-f][1,2,4]triazin-2-yl]-[4-(3-morpholin-4-yl-piperidin-1-yl)-phenyl]-amine], the IC50 on ALK (ALK Kinase Inhibition) was 100 to 1000 nM; on JAK2 (JAK2 Kinase Inhibition), < 100 nM.
`Cc1cc(N2CCN(C)CC2)ccc1Nc1ncc2ccc(-c3ccc(S(C)(=O)=O)cc3)n2n1` [Example 67, [7-(4-Methanesulfonyl-phenyl)-pyrrolo[2,1-f][1,2,4]triazin-2-yl]-[2-methyl-4-(4-methyl-piperazin-1-yl)-phenyl]-amine]: the IC50 on ALK (ALK Kinase Inhibition) was 100 to 1000 nM; on JAK2 (JAK2 Kinase Inhibition) it was < 100 nM.
`CS(=O)(=O)Nc1cccc(-c2ccc3cnc(Nc4ccc(N5CCOCC5)cc4F)nn23)c1` [Example 371, N-{3-[2-(2-Fluoro-4-morpholin-4-yl-phenylamino)-pyrrolo[2,1-f][1,2,4]triazin-7-yl]-phenyl}-methanesulfonamide]: the IC50 at ALK (ALK Kinase Inhibition) was 1000 to 10000 nM; at JAK2 (JAK2 Kinase Inhibition) it was < 100 nM.
`NC(=O)CN1CCC(c2ccc(Nc3ncc4ccc(-c5cccc6c5OCC6)n4n3)cc2)CC1` [Example 706, 2-(4-{4-[7-(2,3-Dihydro-benzofuran-7-yl)-pyrrolo[2,1-f][1,2,4]triazin-2-ylamino]-phenyl}-piperidin-1-yl)-acetamide]: the IC50 at ALK (setting [1]) and at JAK2 (setting [2]) was < 100 nM in each case.
In the case of `COc1cc(CN2CCN(C(=O)OC(C)(C)C)CC2)ccc1Nc1ncc2ccc(-c3ccccc3N(C)S(C)(=O)=O)n2n1` [Example 1222, 4-(4-{7-[2-(Methanesulfonyl-methyl-amino)-phenyl]-pyrrolo[2,1-f][1,2,4]triazin-2-ylamino}-3-methoxy-benzyl)-piperazine-1-carboxylic acid tert-butyl ester], the IC50 at ALK (setting [1]) was < 100 nM; at JAK2 (setting [2]), 1000 to 10000 nM.
With `CN1CCN(C2CCCN(c3ccc(Nc4ncc5ccc(-c6cccc(Cl)c6)n5n4)cc3)C2)CC1` (stereo not shown) [Example 350, [7-(3-Chloro-phenyl)-pyrrolo[2,1-f][1,2,4]triazin-2-yl]-{4-[3-(4-methyl-piperazin-1-yl)-piperidin-1-yl]-phenyl}-amine], the IC50 at ALK (ALK Kinase Inhibition) and at JAK2 (JAK2 Kinase Inhibition) was < 100 nM throughout.
With `COc1cc(N2CCC(N3CCOCC3)CC2)ccc1Nc1ncc2ccc(-c3ccccc3S(C)(=O)=O)n2n1` [Example 540, [7-(2-Methanesulfonyl-phenyl)-pyrrolo[2,1-f][1,2,4]triazin-2-yl]-[2-methoxy-4-(4-morpholin-4-yl-piperidin-1-yl)-phenyl]-amine], the IC50 on ALK (setting [1]) and at JAK2 (setting [2]) was 1000 to 10000 nM in each case.
Regarding `CN1CCN(c2ccc(Nc3ncc4ccc(-c5ccc(CN6CCS(=O)(=O)CC6)nc5)n4n3)cc2)CC1` [Example 1056, {7-[6-(1,1-Dioxo-1$1(6)-thiomorpholin-4-ylmethyl)-pyridin-3-yl]-pyrrolo[2,1-f][1,2,4]triazin-2-yl}-[4-(4-methyl-piperazin-1-yl)-phenyl]-amine], the IC50 is 100 to 1000 nM at ALK (setting [1]) and < 100 nM at JAK2 (setting [2]).
On to `CC(=O)N1CCOc2ccc(Nc3ncc4ccc(-c5cccc(S(=O)(=O)NC(C)(C)C)c5)n4n3)cc21` [Example 1373, 3-[2-(4-Acetyl-3,4-dihydro-2H-benzo[1,4]oxazin-6-ylamino)-pyrrolo[2,1-f][1,2,4]triazin-7-yl]-N-tert-butyl-benzenesulfonamide], for which the IC50 at ALK (ALK Kinase Inhibition) and on JAK2 (JAK2 Kinase Inhibition) was < 100 nM each time.
On to `COc1ccccc1-c1ccc2cnc(Nc3ccc(N4CCCC(C(=O)N5CCN(C)CC5)C4)cc3)nn12` (stereo not shown) [Example 443, (1-{4-[7-(2-Methoxy-phenyl)-pyrrolo[2,1-f][1,2,4]triazin-2-ylamino]-phenyl}-piperidin-3-yl)-(4-methyl-piperazin-1-yl)-methanone], for which the IC50 on ALK (ALK Kinase Inhibition) and at JAK2 (JAK2 Kinase Inhibition) was < 100 nM in each case.
As for `CC(O)c1cccc(Nc2ncc3ccc(-c4cccc(S(=O)(=O)NC(C)(C)C)c4)n3n2)c1` (stereo not shown) [Example 569, N-tert-Butyl-3-{2-[3-(1-hydroxy-ethyl)-phenylamino]-pyrrolo[2,1-f][1,2,4]triazin-7-yl}-benzenesulfonamide], the IC50 on ALK (setting [1]) is 100 to 1000 nM; on JAK2 (setting [2]) it was < 100 nM.
With `CN(c1ccccc1-c1ccc2cnc(Nc3ccc(N4CCN(CCO)CC4)cc3)nn12)S(C)(=O)=O` [Example 1175, N-[2-(2-{4-[4-(2-Hydroxy-ethyl)-piperazin-1-yl]-phenylamino}-pyrrolo[2,1-f][1,2,4]triazin-7-yl)-phenyl]-N-methyl-methanesulfonamide], the IC50 at ALK (setting [1]) and on JAK2 (setting [2]) was < 100 nM throughout.
`CCN(CC)C1CCN(c2ccc(Nc3ncc4ccc(-c5cnn(C)c5)n4n3)cc2)CC1` [Example 1207, [4-(4-Diethylamino-piperidin-1-yl)-phenyl]-[7-(1-methyl-1H-pyrazol-4-yl)-pyrrolo[2,1-f][1,2,4]triazin-2-yl]-amine]: the IC50 on ALK (setting [1]) is 100 to 1000 nM; on JAK2 (setting [2]) it was < 100 nM.
`CN1CCN(c2ccc(Nc3ncc4ccc(Sc5ccccc5)n4n3)cc2)CC1` [Example 78, [4-(4-Methyl-piperazin-1-yl)-phenyl]-(7-phenylsulfanyl-pyrrolo[2,1-f][1,2,4]triazin-2-yl)-amine]: the IC50 at ALK (ALK Kinase Inhibition) and on JAK2 (JAK2 Kinase Inhibition) was < 100 nM each time.
Consider `CCN(CC)C1CCN(c2ccc(Nc3ncc4ccc(-c5ccc(OC)nc5)n4n3)cc2)CC1` [Example 1206, [4-(4-Diethylamino-piperidin-1-yl)-phenyl]-[7-(6-methoxy-pyridin-3-yl)-pyrrolo[2,1-f][1,2,4]triazin-2-yl]-amine], for which the IC50 on ALK (setting [1]) is 100 to 1000 nM; at JAK2 (setting [2]), < 100 nM.
For `CN1CCN(c2ccc(Nc3ncc4ccc(-c5ccc(S(=O)(=O)N(C)C)cc5)n4n3)cc2)CC1` [Example 83, N,N-Dimethyl-4-{2-[4-(4-methyl-piperazin-1-yl)-phenylamino]-pyrrolo[2,1-f][1,2,4]triazin-7-yl}-benzenesulfonamide], the IC50 was 100 to 1000 nM on ALK (ALK Kinase Inhibition) and < 100 nM on JAK2 (JAK2 Kinase Inhibition).
Regarding `CN1CCN(c2ccc(Nc3ncc4c(Br)cc(-c5ccc(S(C)(=O)=O)cc5)n4n3)cc2)CC1` [Example 91, [5-Bromo-7-(4-methanesulfonyl-phenyl)-pyrrolo[2,1-f][1,2,4]triazin-2-yl]-[4-(4-methyl-piperazin-1-yl)-phenyl]-amine], the IC50 at ALK (ALK Kinase Inhibition) is 100 to 1000 nM; on JAK2 (JAK2 Kinase Inhibition) it was < 100 nM.
As to `COc1ccccc1-c1ccc2cnc(Nc3ccc(CN4CCCC4)cc3)nn12` [Example 1430, [7-(2-Methoxy-phenyl)-pyrrolo[2,1-f][1,2,4]triazin-2-yl]-(4-pyrrolidin-1-ylmethyl-phenyl)-amine], the IC50 at ALK (ALK Kinase Inhibition) and at JAK2 (JAK2 Kinase Inhibition) was < 100 nM throughout.
Regarding `COc1ccc(Cl)cc1-c1ccc2cnc(Nc3ccc(N4CCN(CC(C)(C)O)CC4)cc3)nn12` [Example 222, 1-(4-{4-[7-(5-Chloro-2-methoxy-phenyl)-pyrrolo[2,1-f][1,2,4]triazin-2-ylamino]-phenyl}-piperazin-1-yl)-2-methyl-propan-2-ol], the IC50 on ALK (ALK Kinase Inhibition) and at JAK2 (JAK2 Kinase Inhibition) was < 100 nM each time.
As to `CN1CCN(c2cccc(Nc3ncc4ccc(-c5cnn(CC(N)=O)c5)n4n3)c2)CC1` [Example 978, 2-(4-{2-[3-(4-Methyl-piperazin-1-yl)-phenylamino]-pyrrolo[2,1-f][1,2,4]triazin-7-yl}-pyrazol-1-yl)-acetamide], the IC50 on ALK (setting [1]) is 100 to 1000 nM; on JAK2 (setting [2]), < 100 nM.
With `Clc1cccc(-c2ccc3cnc(Nc4ccc(N5CCOCC5)cc4)nn23)c1` [Example 1, [7-(3-Chloro-phenyl)-pyrrolo[2,1-f][1,2,4]triazin-2-yl]-(4-morpholin-4-yl-phenyl)-amine], the IC50 is > 10000 nM at ALK (ALK Kinase Inhibition) and < 100 nM at JAK2 (JAK2 Kinase Inhibition).
On to `CN(C)S(=O)(=O)c1ccc(-c2ccc3cnc(Nc4ccc(N5CCOCC5)cc4)nn23)cc1` [Example 71, N,N-Dimethyl-4-[2-(4-morpholin-4-yl-phenylamino)-pyrrolo[2,1-f][1,2,4]triazin-7-yl]-benzenesulfonamide], for which the IC50 at ALK (ALK Kinase Inhibition) is > 10000 nM; on JAK2 (JAK2 Kinase Inhibition), < 100 nM.
Turning to `CCc1nc2ccc(Nc3ncc4ccc(-c5cccc(S(=O)(=O)NC(C)(C)C)c5)n4n3)cc2[nH]1` [Example 1328, N-tert-Butyl-3-[2-(2-ethyl-3H-benzimidazol-5-ylamino)-pyrrolo[2,1-f][1,2,4]triazin-7-yl]-benzenesulfonamide], the IC50 is 100 to 1000 nM at ALK (setting [1]) and < 100 nM on JAK2 (setting [2]).
As for `COc1cc(N2CCCN(C[C@@H](C)O)CC2)ccc1Nc1ncc2ccc(-c3ccccc3OC)n2n1` [Example 766, (R)-1-(4-{3-Methoxy-4-[7-(2-methoxy-phenyl)-pyrrolo[2,1-f][1,2,4]triazin-2-ylamino]-phenyl}-[1,4]diazepan-1-yl)-propan-2-ol], the IC50 on ALK (setting [1]) and at JAK2 (setting [2]) was < 100 nM each time.
On to `CC(=O)Nc1cccc(Nc2ncc3ccc(-c4ccccc4N(C)S(C)(=O)=O)n3n2)c1` [Example 1375, N-(3-{7-[2-(Methanesulfonyl-methyl-amino)-phenyl]-pyrrolo[2,1-f][1,2,4]triazin-2-ylamino}-phenyl)-acetamide], for which the figures for the IC50 on ALK (ALK Kinase Inhibition) and on JAK2 (JAK2 Kinase Inhibition) were 100 to 1000 nM and < 100 nM, respectively.
